In publication PMC4131897 (Biochemistry, 2014) one finds Kd data, which are given here for 1 molecule.

SMILES strings stand for the structures. Residue numbers refer to the chain shown, from its start.

What all share (experiment): intrinsic tryptophan fluorescence quenching
Common to all, as to assay type: binding

Test [1] has as its target T1, BjPutA (proline utilization A) (Bradyrhizobium diazoefficiens, UniProt Q89E26, D779A).
T1 sequence (Q89E26 1-999 D779A): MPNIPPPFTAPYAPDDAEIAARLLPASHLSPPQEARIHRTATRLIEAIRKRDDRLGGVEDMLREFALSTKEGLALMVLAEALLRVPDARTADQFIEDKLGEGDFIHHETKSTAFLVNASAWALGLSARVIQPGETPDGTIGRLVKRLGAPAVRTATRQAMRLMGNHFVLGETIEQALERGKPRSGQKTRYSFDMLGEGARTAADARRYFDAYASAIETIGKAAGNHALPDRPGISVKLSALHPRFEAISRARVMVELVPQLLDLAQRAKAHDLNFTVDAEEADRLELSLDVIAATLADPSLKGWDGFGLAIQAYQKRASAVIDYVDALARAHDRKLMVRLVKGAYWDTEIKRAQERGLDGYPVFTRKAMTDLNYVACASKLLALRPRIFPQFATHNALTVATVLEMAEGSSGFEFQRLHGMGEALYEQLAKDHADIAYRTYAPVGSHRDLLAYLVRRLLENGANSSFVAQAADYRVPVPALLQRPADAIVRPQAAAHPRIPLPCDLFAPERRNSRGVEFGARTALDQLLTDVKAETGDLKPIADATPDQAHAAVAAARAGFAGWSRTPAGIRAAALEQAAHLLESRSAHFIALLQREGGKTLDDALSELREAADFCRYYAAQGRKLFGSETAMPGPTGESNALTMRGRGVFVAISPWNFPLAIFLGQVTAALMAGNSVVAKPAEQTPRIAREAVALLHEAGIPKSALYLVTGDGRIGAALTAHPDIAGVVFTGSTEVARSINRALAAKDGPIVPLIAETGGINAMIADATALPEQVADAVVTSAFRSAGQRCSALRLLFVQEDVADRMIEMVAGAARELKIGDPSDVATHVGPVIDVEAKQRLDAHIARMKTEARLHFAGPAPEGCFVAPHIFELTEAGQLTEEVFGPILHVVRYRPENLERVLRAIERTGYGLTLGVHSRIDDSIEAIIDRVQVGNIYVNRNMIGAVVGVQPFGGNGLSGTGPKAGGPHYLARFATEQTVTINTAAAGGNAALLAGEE

For test [2], the target named is T2, BjPutA (proline utilization A) (Bradyrhizobium diazoefficiens, UniProt Q89E26, D778Y).
T2 sequence (Q89E26 1-999 D778Y): T1 sequence (Q89E26 1-999 D779A) with D778Y, A779D

The target of test [3] is T3, BjPutA (proline utilization A) (Bradyrhizobium diazoefficiens, UniProt Q89E26, D779W).
T3 sequence (Q89E26 1-999 D779W): T1 sequence (Q89E26 1-999 D779A) with A779W

In general, Kd refers to a measure of binding affinity in units of concentration. Read a low Kd as tighter binding. Consider `NC(=O)c1ccc[n+]([C@@H]2O[C@H](COP(=O)(O)OP(=O)(O)OC[C@H]3O[C@@H](n4cnc5c(N)ncnc54)[C@H](O)[C@@H]3O)[C@@H](O)[C@H]2O)c1` [NAD^+], for which the results for the Kd in test [1], in test [2] and in test [3] were 640 ± 50 nM, 670 ± 40 nM and 780 ± 50 nM, respectively.
